{
  "source": "patent US9375411B2",
  "about": "“Uses and methods for the treatment of liver diseases or conditions” (Verlyx Pharma Inc., priority 2012, dated 2016)",
  "key": {"[1]": {"system": "GalN/LPS-induced liver injury", "assay": "GalN/LPS fulminant liver injury survival study", "assay_type": "in vivo", "conditions": "C57BL/6 mice; IP 30 minutes prior GalN/LPS; PENTAMIDINE 40 mpk, Decamidine 10 mpk", "procedure": "In this experiment, the 8-hour survival rate for C57BL/6 mice is evaluated when treated or not with two different aromatic diamidines (pentamidine isethionate(C5) and decamidine isethionate (C10)). Both compounds were administered intraperitoneally at doses close to their MTD 30 minutes prior a GalN/LPS-induced liver injury."}, "[2]": {"assay": "Oral bioavailability and biodistribution of pentamidine salts", "conditions": "mice; for Tissue Concentration Kidney / Tissue Concentration Liver / Tissue Concentration Lung / Tissue Concentration Pancreas: 24 hours after PO 200 mg/kg; for Tissue Concentration Kidney / Tissue Concentration Liver / Tissue Concentration Lung / Tissue Concentration Pancreas / AUCINF / Cl/F / Cmax / MRT / Tmax / t½: 200 mg/kg; for F* / AUCINF / Cl/F / Cmax / MRT / Tmax / t½: oral 200 mg/kg; for F*: based on the iv AUC at 5 mg/kg of 19.08; for AUCINF / Cl/F / Cmax / MRT / Tmax / t½: blood", "procedure": "In this experiment, HCl, isethionate and tosylate salts of pentamidine were administered orally to mice and their PK and tissue accumulations were compared.\nPK parameters for pentamidine salt following oral administration of 200 mg/kg in mice.\nBiodistribution of Pentamidine Salts in mice, 24 hours after PO administration of 200 mg/kg."}},
  "note": "Counter-ions that a name gives are not always drawn.",
  "data": [
    {"smiles": "N=C(N)c1ccc(OCCCCCCCCCCOc2ccc(C(=N)N)cc2)cc1", "note": "[Decamidine, decamidine isethionate]", "values": [
      {"measurement": "8-hour survival", "setting": "[1]", "value": 100, "unit": "%"}
    ]},
    {"smiles": "N=C(N)c1ccc(OCCCCCOc2ccc(C(=N)N)cc2)cc1", "note": "[HCl salt, pentamidine bis-HCl]", "values": [
      {"measurement": "Tissue Concentration Kidney", "setting": "[2]; listed as Penta-HCL, bis-HCl", "value": 156.3, "unit": "µM"},
      {"measurement": "Tissue Concentration Liver", "setting": "[2]; listed as Penta-HCL, bis-HCl", "value": 224.6, "unit": "µM"},
      {"measurement": "Tissue Concentration Lung", "setting": "[2]; listed as Penta-HCL, bis-HCl", "value": 43.4, "unit": "µM"},
      {"measurement": "Tissue Concentration Pancreas", "setting": "[2]; listed as Penta-HCL, bis-HCl", "value": 16.6, "unit": "µM"},
      {"measurement": "F*", "setting": "[2]; bis-HCl", "value": 20.7},
      {"measurement": "AUCINF", "setting": "[2]; bis-HCl", "value": 158.1, "unit": "µM·h"},
      {"measurement": "Cl/F", "setting": "[2]; bis-HCl", "value": 85, "unit": "mL/min/kg"},
      {"measurement": "Cmax", "setting": "[2]; bis-HCl", "value": 5240, "unit": "nM"},
      {"measurement": "MRT", "setting": "[2]; bis-HCl", "value": 136.0, "unit": "h"},
      {"measurement": "Tmax", "setting": "[2]; bis-HCl", "value": 2.67, "unit": "h"},
      {"measurement": "t½", "setting": "[2]; bis-HCl", "value": 90.8, "unit": "h"}
    ]},
    {"smiles": "N=C(N)c1ccc(OCCCCCOc2ccc(C(=N)N)cc2)cc1", "note": "[Tosylate salt, pentamidine tosylate]", "values": [
      {"measurement": "Tissue Concentration Kidney", "setting": "[2]; listed as Penta-Tos", "value": 1.9, "unit": "µM"},
      {"measurement": "Tissue Concentration Liver", "setting": "[2]; listed as Penta-Tos", "value": 4.1, "unit": "µM"},
      {"measurement": "Tissue Concentration Lung", "setting": "[2]; listed as Penta-Tos", "value": 0.5, "unit": "µM"},
      {"measurement": "Tissue Concentration Pancreas", "setting": "[2]; listed as Penta-Tos", "value": 0.5, "unit": "µM"},
      {"measurement": "F*", "setting": "[2]", "value": 2.3},
      {"measurement": "AUCINF", "setting": "[2]", "value": 17.8, "unit": "µM·h"},
      {"measurement": "Cl/F", "setting": "[2]", "value": 440, "unit": "mL/min/kg"},
      {"measurement": "Cmax", "setting": "[2]", "value": 430, "unit": "nM"},
      {"measurement": "MRT", "setting": "[2]", "value": 86.0, "unit": "h"},
      {"measurement": "Tmax", "setting": "[2]", "value": 6.67, "unit": "h"},
      {"measurement": "t½", "setting": "[2]", "value": 54.9, "unit": "h"}
    ]}
  ]
}
